Assay results as given in patent publication US10266544B2, “Aryl substituted aminomethyl spectinomycin analogs as antibacterial agents” (ST. JUDE CHILDREN'S RESEARCH HOSPITAL, INC., priority 2013, dated 2019).
Converted amounts (≈) assume the structure as drawn. Where a name gives a salt, the structure may show the parent alone. Read-outs that look alike come from different tables or passages of the source.

Assays:
Type in all cases: cell-based
[1] = system: Bacillus anthracis, Sterne 34F2; test: microbe, parasite or virus in culture; conditions: STERNE34F2, read-out: MIC B.a.
[2] = system: Bacillus subtilis (ATCC 23857); test: MIC determination, microbroth dilution; conditions: ATCC23857; Bacillus subtilis (ATCC 23857); read-out: MIC B.s.
[3] = system: Enterococcus faecalis (ATCC 33186); test: MIC determination, microbroth dilution; conditions: ATCC33186; Enterococcus faecalis (ATCC 33186); read-out: MIC E.f.
[4] = system: Staphylococcus aureus (ATCC 29213); test: MIC determination, microbroth dilution; conditions: ATCC29213; Staphylococcus aureus (ATCC 29213); read-out: MIC S.a.
[5] = system: MRSA, Staphylococcus aureus (NRS70); test: MIC determination, microbroth dilution; conditions: Staphylococcus aureus (NRS70); read-out: MIC MRSA
[6] = system: Streptococcus pneumoniae (R6); test: MIC determination, microbroth dilution
[7] = system: Streptococcus pyogenes (ATCC 700294); test: MIC determination, microbroth dilution; conditions: ATCC700294; Streptococcus pyogenes (ATCC 700294); read-out: MIC S. py.
[8] = system: M. tuberculosis clinical isolates; test: microbe, parasite or virus in culture; conditions: Mycobacterium tuberculosis, H37RV, read-out: MIC H37Rv
[9] = system: acinetobacter baumannii (ATCC 19606); test: MIC determination, microbroth dilution; conditions: ATCC19606
[10] = system: Burkholderia cepacia (ATCC 25416); test: MIC determination, microbroth dilution; conditions: Burkholderia cepacia, ATCC25416, read-out: MIC B.c., Burkholderia cepacia (ATCC 25416)
[11] = system: Escherichia coli (ATCC 700926); test: MIC determination, microbroth dilution
Protocol: MICs were determined using the microbroth dilution method according to Clinical Laboratory Standards Institute (CLSI; National, C. F. C. L. S., Methods for Dilution Antimicrobial Susceptibility Tests for Bacteria Grow aerobically-Seventh Edition: Approved Standard M7-A7, CLSI, Wayne, Pa., USA, 2008) and were read by visual inspection. Two fold serial dilutions of antibiotic in 100 μL of the appropriate broth media were first prepared in 96-well round bottom microtiter plates (Nalge Nunc International, Rochester, N.Y., USA). An equivalent volume (100 μL) of bacterial broth inocula containing approximately 10^5 bacterial cfu/mL was added to each well to give final concentrations of drug starting at 200 μg/mL and the plates were incubated aerobically at 37° C. M. tuberculosis microtiter plates were incubated for 7 days and all other strains were incubated overnight. After incubations, in all cases the MIC was recorded as the lowest concentration of drug that prevented bacterial growth.

E. coli K12 ΔtolC = test: microbe, parasite or virus in culture; conditions: Escherichia coli, read-out: MIC E.c. Δtolc
[12] = system: Klebsiella pneumoniae (ATCC 33495); test: MIC determination, microbroth dilution; conditions: ATCC33495
[13] = system: Pseudomonas aeruginosa (PA01); test: MIC determination, microbroth dilution
[14] = system: Proteus mirabilis (ATCC 25933); test: MIC determination, microbroth dilution; conditions: ATCC25933
[15] = system: Proteus vulgaris (ATCC 33420); test: MIC determination, microbroth dilution; conditions: ATCC33420
[16] = system: Stenotrophomonas maltophilia (ATCC 13637); test: MIC determination, microbroth dilution; conditions: ATCC13637; Stenotrophomonas maltophilia (ATCC 13637); read-out: MIC S.m.
[17] = system: Streptococcus pneumoniae clinical isolates representing several serotypes; test: MIC determination, Streptococcus pneumoniae panel of clinical isolates (Table 7); conditions: Streptococcus pneumoniae
[18] = Streptococcus pneumoniae (R6), read-out: MIC S. pn.
[19] = ATCC700926, Escherichia coli (ATCC 700926), read-out: MIC E.c.

Row | Compound | MIC [1] [µg/mL] | MIC [2] [µg/mL] | MIC [3] [µg/mL] | MIC [4] [µg/mL] | MIC [5] [µg/mL] | MIC [6, 18] [µg/mL] | MIC [7] [µg/mL] | MIC [8] [µg/mL] | other results
1 | CN[C@@H]1[C@H](O)[C@H](NC)C2O[C@]3(O)C(OC2[C@H]1O)O[C@H](C)C[C@@]3(O)CNCc1cccc(C(=O)OC)c1 (stereo partly shown) [compound 41] | > 200 | 50 (≈ 97.7 µM) | 200 (≈ 391 µM) | 200 (≈ 391 µM) | 200 (≈ 391 µM) | 50 (≈ 97.7 µM) | 50 (≈ 97.7 µM) | 50 (≈ 97.7 µM) | 
2 | CN[C@@H]1[C@H](O)[C@H](NC)C2O[C@]3(O)C(OC2[C@H]1O)O[C@H](C)C[C@@]3(O)CNCCCc1ccco1 (stereo partly shown) [compound 38] | > 200 | 6.25 (≈ 13.3 µM) | 50 (≈ 106 µM) | 50 (≈ 106 µM) | 100 (≈ 212 µM) | 12.5 (≈ 26.5 µM) | 25 (≈ 53 µM) | 6.3 (≈ 13.4 µM) | 
3 | CN[C@@H]1[C@H](O)[C@H](NC)C2O[C@]3(O)C(OC2[C@H]1O)O[C@H](C)C[C@@]3(O)CNCc1ccc2ccn(C)c2c1 (stereo partly shown) [compound 43] | > 200 | 12.5 (≈ 24.7 µM) | 100 (≈ 197 µM) | 50 (≈ 98.7 µM) | 12.5 (≈ 24.7 µM) | 200 (≈ 395 µM) | 100 (≈ 197 µM) | 100 (≈ 197 µM) | 
4 | CN[C@@H]1[C@H](O)[C@H](NC)C2O[C@]3(O)C(OC2[C@H]1O)O[C@H](C)C[C@@]3(O)CNCc1ccc(-c2ccccc2)cc1 (stereo partly shown) [compound 40] | > 200 | 50 (≈ 94.4 µM) | 25 (≈ 47.2 µM) | 100 (≈ 189 µM) | 100 (≈ 189 µM) | 12.5 (≈ 23.6 µM) | 6.25 (≈ 11.8 µM) | 100 (≈ 189 µM) | 
5 | CN[C@@H]1[C@H](O)[C@H](NC)[C@H]2O[C@]3(O)[C@H](O[C@@H]2[C@H]1O)O[C@H](C)C[C@@]3(O)CNCc1cncnc1 [compound 66, 3′-(R)-3′-[(pyrimidin-5-ylmethyl)aminomethyl]dihydrospectinomycin tetrahydrobromide] | 100 | 200 |  | > 200 | > 200 | 0.8 | 100 |  | MIC [9]: > 200 µg/mL; MIC [10]: > 200 µg/mL; MIC ([11]; Escherichia coli, ATCC700926, read-out: MIC E.c.): 50 µg/mL; MIC (E. coli K12 ΔtolC): 25 to 50 µg/mL; MIC [12]: 100 to 200 µg/mL; MIC [13]: > 200 µg/mL; MIC [14]: > 200 µg/mL; MIC [15]: > 200 µg/mL; MIC [16]: 100 µg/mL
6 | CN[C@@H]1[C@H](O)[C@H](NC)C2O[C@]3(O)C(OC2[C@H]1O)O[C@H](C)C[C@@]3(O)CNCC(C)c1ccccc1 (stereo partly shown) [compound 49] | > 200 | 12.5 (≈ 26 µM) | 6.25 (≈ 13 µM) | 50 (≈ 104 µM) | 12.5 (≈ 26 µM) | 12.5 (≈ 26 µM) | 12.5 (≈ 26 µM) | 100 (≈ 208 µM) | 
7 | CN[C@@H]1[C@H](O)[C@H](NC)C2O[C@]3(O)C(OC2[C@H]1O)O[C@H](C)C[C@@]3(O)CNCc1ccc(C)o1 (stereo partly shown) [compound 46] | > 200 | 50 (≈ 109 µM) | 100 (≈ 219 µM) | 50 (≈ 109 µM) | > 200 | 12.5 (≈ 27.3 µM) | 12.5 (≈ 27.3 µM) | 25 (≈ 54.6 µM) | 
8 | CN[C@@H]1[C@H](O)[C@H](NC)C2O[C@]3(O)C(OC2[C@H]1O)O[C@H](C)C[C@@]3(O)CNCc1ccc2ccccc2c1 (stereo partly shown) [compound 39] | > 200 | 25 (≈ 49.6 µM) | 50 (≈ 99.3 µM) | 100 (≈ 199 µM) | 100 (≈ 199 µM) | 12.5 (≈ 24.8 µM) | 12.5 (≈ 24.8 µM) | 50 (≈ 99.3 µM) | 
9 | CN[C@@H]1[C@H](O)[C@H](NC)C2O[C@]3(O)C(OC2[C@H]1O)O[C@H](C)C[C@@]3(O)CNCc1cccn1C (stereo partly shown) [compound 48] | > 200 | 12.5 (≈ 27.4 µM) | > 200 | 200 (≈ 438 µM) | 200 (≈ 438 µM) | 100 (≈ 219 µM) | 200 (≈ 438 µM) | 200 (≈ 438 µM) | 
10 | CN[C@@H]1[C@H](O)[C@H](NC)C2O[C@]3(O)C(OC2[C@H]1O)O[C@H](C)C[C@@]3(O)CNCCC(C)c1ccccc1 (stereo partly shown) [compound 47] | > 200 | 12.5 (≈ 25.2 µM) | 25 (≈ 50.4 µM) | 25 (≈ 50.4 µM) | 100 (≈ 202 µM) | 25 (≈ 50.4 µM) | 25 (≈ 50.4 µM) | 6.3 (≈ 12.7 µM) | 
11 | CN[C@@H]1[C@H](O)[C@H](NC)C2O[C@]3(O)C(OC2[C@H]1O)O[C@H](C)C[C@@]3(O)CNCc1cccc(C(F)(F)F)c1 (stereo partly shown) [compound 50] | > 200 | 12.5 (≈ 24 µM) | 25 (≈ 47.9 µM) | 50 (≈ 95.9 µM) | 50 (≈ 95.9 µM) | 3.13 (≈ 6 µM) | 1.56 (≈ 2.99 µM) |  | 
12 | CN[C@@H]1[C@H](O)[C@H](NC)[C@H]2O[C@]3(O)[C@H](O[C@@H]2[C@H]1O)O[C@H](C)C[C@@]3(O)CNCc1ccc(SC)cc1 [compound 68, 3′-(R)-3′-[(4-(methylthio)benzylaminomethyl)]dihydrospectinomycin trihydrobromide] | 25 | 25 |  | 25 | 50 | 1.6 | 3.1 |  | MIC [9]: > 200 µg/mL; MIC [10]: > 200 µg/mL; MIC [11, 19]: 50 µg/mL; MIC (E. coli K12 ΔtolC): 12.5 µg/mL; MIC [12]: 100 to 200 µg/mL; MIC [13]: 200 µg/mL; MIC [14]: > 200 µg/mL; MIC [15]: > 200 µg/mL; MIC [16]: 25 µg/mL
13 | CN[C@@H]1[C@H](O)[C@H](NC)[C@H]2O[C@]3(O)[C@H](O[C@@H]2[C@H]1O)O[C@H](C)C[C@@]3(O)CNCc1ccc(S(C)(=O)=O)cc1 [compound 69, 3′-(R)-3′-[(4-(methylsulfonyl)benzylaminomethyl)]dihydrospectino-mycin trihydrobromide] | > 200 | > 200 |  | > 200 | > 200 | 100 | 100 |  | MIC [9]: > 200 µg/mL; MIC [10]: > 200 µg/mL; MIC [11, 19]: 50 to 100 µg/mL; MIC (E. coli K12 ΔtolC): 12.5 to 25 µg/mL; MIC [12]: > 200 µg/mL; MIC [13]: > 200 µg/mL; MIC [14]: > 200 µg/mL; MIC [15]: > 200 µg/mL; MIC [16]: > 200 µg/mL
14 | CN[C@@H]1[C@H](O)[C@H](NC)[C@H]2O[C@]3(O)[C@H](O[C@@H]2[C@H]1O)O[C@H](C)C[C@@]3(O)CNCc1cnccn1 [compound 67, 3′-(R)-3′-[(pyrazin-2-ylmethyl)aminomethyl]dihydrospectinomycin tetrahydrobromide] | 200 | 100 |  | > 200 | > 200 | 6.3 | 100 |  | MIC [9]: > 200 µg/mL; MIC [10]: > 200 µg/mL; MIC [11, 19]: 50 to 100 µg/mL; MIC (E. coli K12 ΔtolC): 25 to 50 µg/mL; MIC [12]: 100 µg/mL; MIC [13]: > 200 µg/mL; MIC [14]: > 200 µg/mL; MIC [15]: > 200 µg/mL; MIC [16]: 100 µg/mL
15 | CN[C@@H]1[C@H](O)[C@H](NC)[C@H]2O[C@]3(O)[C@H](O[C@@H]2[C@H]1O)O[C@H](C)CC3(O)CN (stereo partly shown) [mSPC, 3′-aminomethyl-3′-hydroxy spectinomycin, reference compound] |  |  |  |  |  |  |  |  | MIC ([6]; Streptococcus pneumoniae, S. pneumoniae R6, Drug Susceptible, read-out: MIC R6): 50 µg/mL (≈ 138 µM); MIC ([17]; BAA1407, S. pneumoniae BAA-1407, Macrolide Resistant, read-out: MIC BAA-1407): 200 µg/mL (≈ 550 µM); MIC ([17]; S. pneumoniae A66.1x, Drug Susceptible, read-out: MIC A66.1x): 50 µg/mL (≈ 138 µM); MIC ([17]; S. pneumoniae BHN97x, Drug Susceptible, read-out: MIC BHN97x): 50 µg/mL (≈ 138 µM); MIC ([17]; S. pneumoniae D39X, Drug Susceptible, read-out: MIC D39X): 100 µg/mL (≈ 275 µM); MIC ([17]; S. pneumoniae Daw7, PenG Resistant, read-out: MIC Daw7): 100 µg/mL (≈ 275 µM); MIC ([17]; S. pneumoniae Daw8, PenG Resistant, read-out: MIC Daw8): 100 µg/mL (≈ 275 µM); MIC ([17]; S. pneumoniae Daw9, PenG Resistant, read-out: MIC Daw9): 50 µg/mL (≈ 138 µM); MIC ([17]; S. pneumoniae Daw62, PenG Resistant, read-out: MIC Daw62): 100 µg/mL (≈ 275 µM); MIC ([17]; S. pneumoniae Daw64, PenG Resistant, read-out: MIC Daw64): 100 µg/mL (≈ 275 µM); MIC ([17]; S. pneumoniae OVA6, Macrolide Resistant, read-out: MIC OVA6): 50 µg/mL (≈ 138 µM); MIC ([17]; S. pneumoniae T4X, Drug Susceptible, read-out: MIC T4X): 50 µg/mL (≈ 138 µM)
